Molecules are shown by their SMILES.

Usually IC50 stands for the concentration that inhibits the measured activity by half. Higher therefore signals weaker potency.

The target of the assay is Tubulin alpha chain (Sus scrofa, UniProt P02550). As to the kind of experiment: Evaluated for the inhibitory concentration against porcine brain tubulin polymerization. In kind it is functional.
Sequence of Tubulin alpha chain (P02550 whole entry, looked up): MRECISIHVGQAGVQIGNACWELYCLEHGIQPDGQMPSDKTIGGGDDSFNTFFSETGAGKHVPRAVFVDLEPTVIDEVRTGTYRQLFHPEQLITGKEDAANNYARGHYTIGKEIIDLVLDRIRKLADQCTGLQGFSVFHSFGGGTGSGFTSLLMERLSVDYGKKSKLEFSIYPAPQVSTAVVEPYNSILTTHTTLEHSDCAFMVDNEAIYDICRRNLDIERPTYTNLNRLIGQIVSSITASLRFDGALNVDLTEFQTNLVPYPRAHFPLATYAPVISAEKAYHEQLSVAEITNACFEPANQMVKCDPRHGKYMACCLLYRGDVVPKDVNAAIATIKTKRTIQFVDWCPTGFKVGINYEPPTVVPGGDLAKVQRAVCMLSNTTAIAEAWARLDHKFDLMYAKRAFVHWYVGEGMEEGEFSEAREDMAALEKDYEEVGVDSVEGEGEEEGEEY
Compound `COc1ccc(CN(C)c2cc(OC)c(OC)c(OC)c2)cc1O` had an IC50 of 100 µM.

Turning to `CCCCCN(Cc1cc(OC)c(OC)c(OC)c1)c1ccc(OC)c(O)c1`, inhibition was half-maximal at 20 µM (IC50).

For the compound `COc1ccc(CNc2cc(OC)c(OC)c(OC)c2)cc1O`, 100 µM corresponded to half-maximal inhibition (IC50).

As for `COc1ccc(N(CCCC(=O)O)Cc2cc(OC)c(OC)c(OC)c2)cc1O`, the IC50 was 40 µM.

`CCCN(Cc1cc(OC)c(OC)c(OC)c1)c1ccc(OC)c(O)c1`: the midpoint of inhibition, the IC50, lay at 5.4 µM.

As for `COc1ccc(N(C)C(=O)c2cc(OC)c(OC)c(OC)c2)cc1O`, the IC50 is over 100 µM.

`COc1ccc(NCc2cc(OC)c(OC)c(OC)c2)cc1O` displayed an IC50 of 100 µM.

In the case of `COc1ccc(C(=O)Nc2cc(OC)c(OC)c(OC)c2)cc1O`, the IC50 was over 100 µM.

`CCN(Cc1cc(OC)c(OC)c(OC)c1)c1ccc(OC)c(O)c1` gave an IC50 of 15 µM.

For the compound `COc1ccc(N(CCCCCO)Cc2cc(OC)c(OC)c(OC)c2)cc1O`, half-maximal inhibition (IC50) required 20 µM.

The compound `COc1ccc(N(Cc2cc(OC)c(OC)c(OC)c2)C(C)=O)cc1O` registered an IC50 of over 100 µM.

`COc1ccc(N(C)Cc2cc(OC)c(OC)c(OC)c2)cc1O` registered a 50% inhibitory concentration (IC50) of 45 µM.

As to `CCCCCCN(Cc1cc(OC)c(OC)c(OC)c1)c1ccc(OC)c(O)c1`, the IC50 was determined as 20 µM.

Regarding `CCC(=O)N(Cc1cc(OC)c(OC)c(OC)c1)c1ccc(OC)c(O)c1`, the IC50 was over 100 µM.

With `COc1ccc(NC(=O)c2cc(OC)c(OC)c(OC)c2)cc1O`, the IC50 was over 100 µM.

Consider `COc1ccc(C(=O)N(C)c2cc(OC)c(OC)c(OC)c2)cc1O`, for which the IC50 was over 100 µM.

As to `CCCCN(Cc1cc(OC)c(OC)c(OC)c1)c1ccc(OC)c(O)c1`, the IC50 was 7.5 µM.

(Values after ChEMBL document CHEMBL1151593, “Synthesis and nti-tubulin activity of aza-combretastatins” (Bioorg Med Chem Lett, 1994).)
